According to paper PMC10857906, “PROTAC-mediated NR4A1 degradation as a novel strategy for cancer immunotherapy” (The Journal of Experimental Medicine, 2024):

Assays:
NR4A2 = molecular target: T1, NR4A2 (Homo sapiens, UniProt P43354); test: NR4A2 protein level after treatment (immunoblotting); format: cell-based
T1 construct: endogenous in cells
Experimental: (§1) Samples were lysed using radioimmunoprecipitation assay buffer (RIPA) lysis buffer (150 mM NaCl, 5 mM EDTA, 50 mM Tris pH 8.0, 0.5% sodium deoxycholate, 1% NP-40, 0.1% SDS) supplemented with 1 mM dithiothreitol and protease inhibitors. The lysates were separated by SDS-PAGE and analyzed using standard western blotting procedures ([Khan et al., 2019]). Antibodies: human NR4A1 (ab153914, 1:1,000; Abcam), mouse NR4A1 (14-5965-82, 1:1,000; Invitrogen), NR4A2 (AV38753, 1:1,000; Sigma-Aldrich), NR4A3 (TA804893, 1: 1,000; Thermo Fisher Scientific), VHL (68547, 1:1,000; Cell Signaling), β-actin (13E5, 1:5,000; Cell Signaling), β-tubulin (9F3, 1: 5,000; Cell Signaling), and GAPDH (D16H11, 1: 5,000; Cell Signaling) were employed for protein detection.

PK study in mice = format: in vivo, C57BL/6 mice; settings: mouse
Experimental: The PK study of NR-V04 was done by Bioduro Inc. on three healthy male C57BL/6 mice weighing between 20 and 25 g in each group. Test compound (i.v.) was dissolved in 5% DMSO/3% tween 80 in PBS with 0.5 mEq 1N HCl and was administered (n = 3 per group) at a dose level of 2 mg/kg (concentration: 0.4 mg/ml). Test compounds (i.p.) were dissolved in 5% DMSO/3% tween 80 in PBS with 2 mEq 1N HCl (concentration […]) and were administrated at a dose level of 20 mg/kg. Plasma samples (i.v.) were collected from the orbital plexus at 0.083, 0.25, 0.5, 1.0, 2.0, 4.0, 8.0, and 24 h, and plasma samples (i.p.) were collected from the orbital plexus at 0.25, 0.50, 1.0, 2.0, 4.0, 8.0, and 24 h after dosing. The drug concentrations in the samples were quantified by LC/tandem MS. PK parameters were calculated from the mean plasma concentration by non-compartmental analysis.

NR4A1 = molecular target: T2, NR4A1 (Mus musculus, UniProt P12813); test: PD: NR4A1 degradation in MC38 tumors in mice (immunoblotting); format: in vivo
T2 construct: from tissue; host or cells: MC38 tumours in mice (tumour lysates)
Experimental: as §1
7–9-wk-old C57BL/6J, B6.129S2-Ighm^tm1Cgn/J (002288), B6.129S2-Nr4a1^tm1Jmi/J (NR4A1^−/−, 006187), and NOD-SCID interleukin-2 receptor gamma null (NSG) mice were purchased from Jackson Laboratories. […]
(§2) For syngeneic tumor models, 5 × 10^5 cells MC38, Yumm1.7, and Yummer1.7, 1 × 10^5 cells of B16F10 were resuspended in PBS and implanted into 7–9-wk-old mice subcutaneously. […] Blood samples were taken from the submandibular (facial) vein before each treatment and 42 days later for hematological analysis, and body weight was measured twice per week up to day 42. […]

Yummer1.7 melanoma = Yummer1.7 melanoma syngeneic tumor model; format: in vivo, mouse
Excerpt: 7–9-wk-old C57BL/6J, B6.129S2-Ighm^tm1Cgn/J (002288), B6.129S2-Nr4a1^tm1Jmi/J (NR4A1^−/−, 006187), and NOD-SCID interleukin-2 receptor gamma null (NSG) mice were purchased from Jackson Laboratories. For all studies involving NR-V04 and celastrol, the compounds were formulated in 50% phosal PG, 45% miglyol 810N, and 5% polysorbate 80 and administered via i.p. injection.
as §2, with “subcutaneously. For the tumor inhibition experiment, mice were treated with 1.8 mg/kg NR-V04 or 0.75 mg/kg celastrol by i.p. injection twice weekly. For the immune profile experiment, once tumors reached 0.5 cm in diameter, mice were treated with 1.8 mg/kg NR-V04 by i.p. injection twice weekly.” for “subcutaneously.”
We administered 100 μg of anti-mouse CD8α antibody (Clone: 53-6.7; Bio X Cell) or rat IgG2a isotype control to each mouse every 4 days via i.p. injection. […] Toward the end of the experiment, we collected blood samples from mice in both treatment and control groups and assessed the efficiency of CD8^+ T cell depletion using flow cytometry analysis.

NR4A1 and VHL = NR4A1 and VHL (Homo sapiens, UniProt P22736+P40337); test: Proximity ligation assay (PLA) for the NR4A1-VHL ternary complex; format: cell-based; set-up: endogenous in cells; host or cells: CHL-1 and A375 human melanoma cells; settings: CHL-1 and A375 cells, 500 nM, 16 h, 0.5 μM MG132 pretreatment
Experimental: 5 × 10^4 CHL-1 and A375 cells were cultured in Nunc Lab-Tek Chamber Slide (177402; Thermo Fisher Scientific). The cells were treated with DMSO, 500 nM celastrol, and 500 nM NR-V04 for 16 h with MG132 inhibitor. The PLA was conducted with Duolink In Situ Red Starter Kit Mouse/Rabbit (DUO92101; Sigma-Aldrich) following the standard protocol. Additionally, a non-stain cell group was included as a negative control to account for background signal during PLA assay. The signal was detected using a confocal microscope (LSM 710; Zeiss). Primary antibody: NR4A1 (HPA059742, 2 μg/ml, isotype-rabbit; Sigma-Aldrich) and VHL (MA5-13940, 2 μg/ml, isotype-mouse; Thermo Fisher Scientific).

T2 sequence (P12813 whole entry): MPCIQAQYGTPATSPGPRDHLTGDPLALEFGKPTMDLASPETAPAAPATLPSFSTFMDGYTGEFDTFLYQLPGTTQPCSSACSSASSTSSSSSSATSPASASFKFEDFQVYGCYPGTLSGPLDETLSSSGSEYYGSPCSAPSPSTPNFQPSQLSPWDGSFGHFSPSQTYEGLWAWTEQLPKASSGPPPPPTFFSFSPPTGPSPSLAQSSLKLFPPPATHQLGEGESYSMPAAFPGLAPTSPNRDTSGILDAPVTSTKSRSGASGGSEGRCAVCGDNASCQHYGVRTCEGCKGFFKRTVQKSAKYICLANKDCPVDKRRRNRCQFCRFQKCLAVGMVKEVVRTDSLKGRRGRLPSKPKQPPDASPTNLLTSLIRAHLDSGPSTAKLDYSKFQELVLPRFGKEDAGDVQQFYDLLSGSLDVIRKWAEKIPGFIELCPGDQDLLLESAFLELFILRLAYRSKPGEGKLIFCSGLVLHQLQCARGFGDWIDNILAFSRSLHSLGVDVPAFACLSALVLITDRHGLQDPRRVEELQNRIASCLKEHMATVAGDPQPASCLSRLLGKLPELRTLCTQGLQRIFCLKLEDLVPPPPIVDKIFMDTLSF
Chain of NR4A1 and VHL (P22736 whole entry): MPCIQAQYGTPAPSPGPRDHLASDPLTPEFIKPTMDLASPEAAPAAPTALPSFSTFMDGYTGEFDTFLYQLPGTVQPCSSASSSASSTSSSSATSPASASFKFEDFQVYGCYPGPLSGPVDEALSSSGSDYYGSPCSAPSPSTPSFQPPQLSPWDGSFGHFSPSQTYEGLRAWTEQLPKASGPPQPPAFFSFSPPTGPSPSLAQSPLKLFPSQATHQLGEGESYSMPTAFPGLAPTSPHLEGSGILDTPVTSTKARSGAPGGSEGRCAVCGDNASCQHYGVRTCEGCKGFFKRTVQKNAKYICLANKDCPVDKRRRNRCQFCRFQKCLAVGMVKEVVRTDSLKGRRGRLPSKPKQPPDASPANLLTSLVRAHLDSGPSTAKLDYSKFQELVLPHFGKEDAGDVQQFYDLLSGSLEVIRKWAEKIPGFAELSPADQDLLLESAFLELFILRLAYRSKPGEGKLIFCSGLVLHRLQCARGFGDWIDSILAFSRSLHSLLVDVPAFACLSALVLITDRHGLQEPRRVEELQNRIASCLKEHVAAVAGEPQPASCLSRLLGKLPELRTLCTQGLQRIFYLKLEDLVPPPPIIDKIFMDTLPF
Chain of NR4A1 and VHL (P40337 whole entry): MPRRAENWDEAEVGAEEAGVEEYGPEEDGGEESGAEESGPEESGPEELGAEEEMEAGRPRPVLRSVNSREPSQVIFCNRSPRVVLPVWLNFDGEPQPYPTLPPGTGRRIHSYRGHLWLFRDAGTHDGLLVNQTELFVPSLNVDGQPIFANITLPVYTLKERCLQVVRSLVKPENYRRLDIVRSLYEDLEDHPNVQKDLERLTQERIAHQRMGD
Chain of NR4A1 and VHL (Q15369 whole entry partner): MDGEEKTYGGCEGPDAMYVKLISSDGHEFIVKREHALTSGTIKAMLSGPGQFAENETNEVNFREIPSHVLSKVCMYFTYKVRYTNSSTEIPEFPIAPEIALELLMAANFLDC
Chain of NR4A1 and VHL (Q15370 whole entry partner): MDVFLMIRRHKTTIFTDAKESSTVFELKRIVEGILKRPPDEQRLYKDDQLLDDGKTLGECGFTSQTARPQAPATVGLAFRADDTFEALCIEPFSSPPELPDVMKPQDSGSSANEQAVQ
T1 sequence (P43354 whole entry): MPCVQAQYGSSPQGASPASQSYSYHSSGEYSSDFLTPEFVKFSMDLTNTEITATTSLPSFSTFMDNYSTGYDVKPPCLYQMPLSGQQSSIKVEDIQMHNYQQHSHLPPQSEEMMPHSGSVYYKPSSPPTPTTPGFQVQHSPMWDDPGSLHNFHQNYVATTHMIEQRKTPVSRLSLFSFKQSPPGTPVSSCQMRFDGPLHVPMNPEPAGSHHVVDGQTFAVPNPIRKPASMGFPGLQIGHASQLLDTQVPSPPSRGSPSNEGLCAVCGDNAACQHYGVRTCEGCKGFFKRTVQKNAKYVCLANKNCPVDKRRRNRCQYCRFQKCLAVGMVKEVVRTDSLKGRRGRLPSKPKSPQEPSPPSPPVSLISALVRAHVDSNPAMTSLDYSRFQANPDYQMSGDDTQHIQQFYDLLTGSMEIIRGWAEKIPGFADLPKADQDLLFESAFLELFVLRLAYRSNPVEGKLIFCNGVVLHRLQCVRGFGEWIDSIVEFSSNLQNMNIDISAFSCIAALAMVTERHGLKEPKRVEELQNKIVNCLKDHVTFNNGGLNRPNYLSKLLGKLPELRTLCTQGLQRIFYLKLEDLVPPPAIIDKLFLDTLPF

With `CC1=C(O)C(=O)C=C2C1=CC=C1[C@@]2(C)CC[C@@]2(C)[C@@H]3C[C@](C)(C(=O)NCCOCCOCCOCCOCC(=O)N[C@H](C(=O)N4C[C@H](O)C[C@H]4C(=O)N[C@@H](C)c4ccc(-c5scnc5C)cc4)C(C)(C)C)CC[C@]3(C)CC[C@]12C` [NR-V04] the “NR4A2 protein level (selectivity in the NR4A family)” value (NR4A2) was “sparing NR4A2 and NR4A3”, the clearance (PK study in mice; male, C57BL/6, plasma, IV 2 mg/kg) was 0.162 mL/min/kg and the “clearance rate (in words)” value (PK study in mice) was “low clearance rate”. The “NR4A1 protein in MC38 tumors at termination” value (NR4A1; 8 doses for 4 wk, 1.8 mg/kg NR-V04 or 0.75 mg/kg celastrol, every 4 days) was “almost completely degraded”, the “NR4A1 degradation in MC38 tumors” value (NR4A1; two doses of 1.8 mg/kg i.p., tumors collected 1-4 days after the last treatment) was “significant degradation of NR4A1 starting from day 1 and persisting for 3 days” and the “tumor response with CD8^+ T cell depletion” value (Yummer1.7 melanoma; Yummer1.7, anti-CD8 antibody 100 µg/mouse, NR-V04 from day 7) was “desensitized tumors to NR-V04 treatment”. For the same molecule, the tumor growth (Yummer1.7 melanoma; Yummer1.7 in WT mice, 1.8 mg/kg i.p. twice a week from day 7) was “effectively inhibited tumor growth” and the “PLA signals (ternary complex formation NR4A1-VHL)” value (NR4A1 and VHL) was “induced strong PLA signals”.
